1 compound from patent US10889554B2, “Excimer forming compounds” (THE GOVERNING COUNCIL OF THE UNIVERSITY OF TORONTO, priority 2013, dated 2021) can be followed below.

This test deals with fixed cells. Briefly: Fixed cell imaging: monitoring decrease in proximal phosphorylation. Format: cell-based. As to conditions: 22 nM, pre-treatment prior to cell fixation. Here is the method: (3 h prior to fixation, media was removed and 22 nM of Staurosporine (BioShop, cat. STA001) solution in fresh media was added and incubated at 37° C., 5% CO2 for 3 h).

On to `CN[C@@H]1C[C@H]2O[C@@](C)([C@@H]1OC)n1c3ccccc3c3c4c(c5c6ccccc6n2c5c31)C(=O)NC4` [staurosporine], for which the “fluorescence intensity of compound 1-Zn^2+ complex compared to untreated control” value is recorded as “time-dependent decrease”.
